The text below walks through data of US7537765B2, “Inhibition of HIV-1 replication by disruption of the processing of the viral capsid-spacer peptide 1 protein” (priority 2003, dated 2009).

Like-named read-outs stand apart in the source and are kept apart here.

The subject of series [1] is PHA-stimulated PBMC. Kind of series: Toxicity in PHA-stimulated PBMC, XTT method. The format is cell-based. To be noted: 7 days. How it is done: Toxicity of DSB was analyzed by incubating with PHA-stimulated PBMC for 7 days at a range of concentrations, then determining cell viability using the XTT method. The 50% cytotoxic concentration was >30 μM, corresponding to an in vitro therapeutic index of approximately 5000.

Series [2] concerns HIV-2ROD. Kind of series: Gag processing (western blot) in chronically infected H9/HIV-2ROD cells. The format is cell-based. How it is done:
(§1) FIG. 2. […] Gag proteins were visualized using HIV-Ig (HIV-1) or monkey anti-SIVmac251 serum (HIV-2 and SIV; NIH AIDS Research and Reference Reagent Program).
(§2) In order to better define DSB's mechanism of action, a detailed examination was undertaken of the virus produced from HIV-1-infected cell lines treated with DSB. Briefly, H9 cells chronically infected with the HIV-1IIIB isolate were treated with DSB at 1 μg/mL for a period of 48 hrs. Indinavir was used as a control. At the 48 hr time-point, spent media was removed and fresh media containing compound was added. At 24, 48 and 72 hrs post fresh compound addition, both cells and supernatant were recovered for analysis. The level of virus in the culture supernatant was determined and western blots were used to characterize viral protein production in both cell-associated and cell-free virus. […] This defect took the form of an additional band in the western blots corresponding to p25 (FIG. 2). This p25 band results from the incomplete processing of the capsid CA-SP1 precursor. […] As discussed above, mutations at the p25 to p24 cleavage site that prevent processing are associated with defects in viral maturation and infectivity (Wiegers K. et al., J. Virol. 72:2846-54 (1998)).
Background: In western blotting, separated proteins are transferred to a membrane and probed.

Series [3] has as its system drug resistant HIV-1 isolates. Kind of series: Drug resistant HIV-1 isolates in fresh PBMC, p24 endpoint. The series is classed as cell-based. To be noted: read-out: IC50. How it is done:
A robust virus inhibition assay was used to evaluate the anti-viral activity of DSB against primary HIV-1 isolates propagated in PMBC. Briefly, serial dilutions of DSB were made in medium into 96-well tissue culture plates. 25-250 TCID50 of virus and 5×10^5 PHA-stimulated PBMCs were added to each well. On days 1, 3 and 5 post-infection, media was removed from each well and replaced with fresh media containing DSB at the appropriate concentration.
The activity of DSB was tested against a panel of HIV-1 isolates resistant to approved drugs. These viruses were obtained from the NIH AIDS Research and Reference Reagent Program. Assays were performed using virus propagated in PBMCs with a p24 endpoint (above), or using cell line targets (MT-2 cells) and a cell killing endpoint. The MT-2 assay format was as follows. Serial dilutions of DSB, or each approved drug, were prepared in 96 well plates. To each sample well was added media containing MT-2 cells at 3×10^5 cells/mL and virus inoculum at a concentration necessary to result in 80% killing of the cell targets at 5 days post-infection (PI). On day 5 post-infection, virus-induced cell killing was determined by the XTT method and the inhibitory activity of the compound was determined.

Series [4] deals with HIV-1IIIB. The series can be described thus: Virus production and Gag processing (western blot) in chronically infected H9/HIV-1IIIB cells. The series is classed as cell-based. The protocol: as §1, §2
Series [5] deals with NL4-3 A366V/G357S double mutant. Kind of series: Virus replication assay of re-engineered NL4-3 mutants in Jurkat T cells (reverse transcriptase activity). The format is cell-based, HIV-1. How it is done: In order to more extensively map the viral genetic determinants for DSB resistance, additional experiments were performed to select for viruses in vitro that are drug resistant. Multiple parallel cultures of Jurkat T cells (5×10^5 each) were transfected with the proviral DNA clone pNL4-3 in the presence or absence of 10-50 ng/ml DSB. The cells were passaged every two days, and fresh drug was added at each passage. Virus replication was monitored by measuring reverse transcriptase activity in culture supernatants. Virus was isolated from culture supernatants harvested at selected timepoints, and genomic DNA was amplified by RT-PCR using primers that spanned the coding region between the N-terminus of CA and the N-terminus of RT. The amplified product was then sequenced using the same set of primers.
In one experiment, an A366V mutation was identified in the SP1 region of NL4-3 virus cultured in the presence of DSB (note: numbering is relative to the Gag polyprotein). Upon further passaging, a double mutant was identified that contained a G357S mutation in CA as well as the A366V mutation in SP1. The A366V mutation was identified previously in experiments selecting for resistant variants of the RF isolate. […] Since serine is present at this position in isolates (such as RF) that are sensitive to DSB, the CA G357S mutation alone is not sufficient to confer resistance to DSB. […]

Series [6] deals with HIV-1 isolates selected for resistance to DSB. Kind of series: Virus replication assay in H9 cells (p24 ELISA), DSB-resistant and parental viruses. The format is cell-based. How it is done:
Virus stocks derived as described above were further analyzed both phenotypically and genotypically to characterize the nature of their drug-resistance. The resistance of the viruses to 3-O-(3′,3′-dimethylsuccinyl)-betulinic acid (DSB) was determined in virus replication assays. Briefly, the virus stocks were first titered in H9 cells by quantitating the levels of p24 (by ELISA) in cultures 8 days after infection with serial 4-fold dilutions of virus. Virus input was then normalized for a second assay in which each virus is cultured for 8 days in the presence of serial 4-fold dilutions of drug. The IC50 for each virus was determined as the dilution of drug that reduced the p24 endpoint level by 50% as compared to the no-drug control. […] In a subsequent series of experiments, the A364V mutation was engineered into the HIV-1 NL4-3 proviral DNA, which was subsequently transfected into HeLa cells. Resulting virus was collected and used to test the activity of DSB in a viral replication assay, as described above.

As usually defined, the IC50 is the midpoint of a concentration-inhibition curve. Consider `C=C(C)[C@@H]1CC[C@]2(C(=O)O)CC[C@]3(C)[C@H](CC[C@@H]4[C@@]5(C)CC[C@H](OC(=O)CC(C)(C)C(=O)O)C(C)(C)[C@@H]5CC[C@]43C)[C@@H]12` [DSB, 3-O-(3′,3′-dimethylsuccinyl)betulinic acid], for which the 50% cytotoxic concentration in series [1] was more than 30 µM. Moreover, the antiviral activity entry in series [2] (HIV-2) is “lack of antiviral activity”. Also, the Gag processing entry in series [2] (HIV-2 chronically infected cell line, 1 μg/mL) is given as “normal Gag processing”. The IC50 was 4.4 nM in series [3] (isolate 1, NRTI-resistant, K70R T215Y/F, R5/X4); 4.2 nM in series [3] (isolate 2, NRTI-resistant, K70R T215Y/F, R5/X4); 5.6 nM in series [3] (isolate 5, Protease-resistant, V82A, X4); 5.5 nM in series [3] (isolate 6, Protease-resistant, I84V, X4); 12.9 nM in series [3] (isolate 7, Protease-resistant, L10R/M46I/L63P/V82T/I84V, X4); 100 nM in series [6] (NL4-3 with engineered A364V mutation (DSB-resistant virus)). Further, the IC50 in series [6] (two independently derived DSB-selected virus stocks) is more than 2000 nM; in series [6] (virus cultured in parallel in the absence of drug), 20 nM; in series [6] (wild-type NL4-3), 10 nM. Further, in series [4] (1 μg/mL, cell-associated and cell-free virus), the “Gag processing (p25 band in western blot)” value was “defect in Gag processing”. In addition, the “amount of virus produced” value in series [4] (1 μg/mL, chronically infected H9 cells) is given as “did not cause a significant reduction in the amount of virus produced”. Further, in series [4] (a variety of experimental systems), the “effect on virus release” value is reported as “does not have a significant effect on virus release”. For the same compound, the virus replication result in series [5] is “replicated efficiently in the absence or presence of DSB”.
